Source: US10681909B2, “Herbicidal triazoles” (FMC Corporation, priority 2014, dated 2020)

Tests used:
pigweed = experiment: Test C postemergence; format: in vivo, Amaranthus retroflexus
In short: (§1)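 Pre: seeded into loam/sand, sprayed same time. Post: plants in peat moss–vermiculite mix with starter nutrients and dolomitic limestone, treated at 1- to 4-leaf stage (2 to 18 cm). Formulation: non-phytotoxic solvent blend plus surfactant.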

ducksalad = experiment: Test B flooded paddy test; format: in vivo, Heteranthera limosa; conditions: applied to paddy water at 2-leaf stage, visual rating after 13 to 15 d, scale 0 (no effect) to 100 (complete control)
In short: (§2)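 Pots were flooded to 3 cm above the soil at treatment, and compounds were applied directly into the paddy water. That depth was held throughout. After 13 to 15 d in a greenhouse, plants were rated visually against untreated controls.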

johnsongrass = experiment: Test C postemergence; format: in vivo, Sorghum halepense
In short: as §1

foxtail, giant = experiment: Test A preemergence; format: in vivo, Setaria faberii; conditions: 0 to 100 scale (0 no effect, 100 complete control)
In short: (§3)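 Herbicidal response was scored on plants treated pre- or postemergence with surfactant-containing, non-phytotoxic solvent formulations. Preemergence meant a directed spray onto soil (loam–sand) holding sown seed; postemergence plants were at one to two leaves.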

velvetleaf [1] = experiment: Test C preemergence; format: in vivo, Abutilon theophrasti; conditions: for Velvetleaf plant response rating (0 to 100): Preemergence, visual rating after 13 to 15 d; for Plant response rating (scale of 0 to 100 where 0 is no effect and 100 is complete control): Velvetleaf, preemergence, 250 g ai/ha
Excerpt: Seeds of plant species selected from blackgrass (Alopecurus myosuroides), ryegrass, Italian (Italian ryegrass, Lolium multiflorum), wheat (winter wheat, Triticum aestivum), galium (catchweed bedstraw, Galium aparine), corn (Zea mays), crabgrass, large (large crabgrass, Digitaria sanguinalis), foxtail, giant, (giant foxtail, Setaria faberii), johnsongrass (Sorghum halepense), lambsquarters (Chenopodium album), morningglory (Ipomoea coccinea), nutsedge, yellow (yellow nutsedge, Cyperus esculentus), pigweed (Amaranthus retroflexus), ragweed (common ragweed, Ambrosia elatior), soybean (Glycine max), barnyardgrass (Echinochloa crus-galli), oilseed rape (Brassica napus), waterhemp (common waterhemp, Amaranthus rudis), and velvetleaf (Abutilon theophrasti) were planted into a blend of loam soil and sand and treated preemergence with test chemicals formulated in a non-phytotoxic solvent mixture which included a surfactant. At the same time, plants selected from these crop and weed species and also chickweed (common chickweed, Stellaria media), oat, wild (wild oat, Avena fatua), and kochia (Kochia scoparia), were planted in pots containing Sunshine Redi-Earth® planting medium comprising spaghnum peat moss, vermiculite, starter nutrients and dolomitic limestone and treated with postemergence applications of test chemicals formulated in the same manner. Plants ranged in height from 2 to 18 cm (1- to 4-leaf stage) for postemergence treatments. […] A dash (-) response means no test result.

morningglory = experiment: Test C postemergence; format: in vivo, Ipomoea coccinea
In short: as §1

corn = experiment: Test A postemergence; format: in vivo, Zea mays; conditions: 0 to 100 scale (0 no effect, 100 complete control), approx. 10 d
In short: as §3

barnyardgrass [2] = experiment: Test A preemergence; format: in vivo, Echinochloa crus-galli; conditions: 0 to 100 scale (0 no effect, 100 complete control)
In short: as §3

rice = experiment: Test B flooded paddy test; format: in vivo, Oryza sativa; conditions: applied to paddy water at 2-leaf stage, visual rating after 13 to 15 d, scale 0 (no effect) to 100 (complete control)
In short: as §2

crabgrass, large = experiment: Test C postemergence; format: in vivo, Digitaria sanguinalis
In short: as §1

barnyardgrass [3] = experiment: Test A postemergence; format: in vivo, Echinochloa crus-galli; conditions: 0 to 100 scale (0 no effect, 100 complete control), approx. 10 d
In short: as §3

ragweed = experiment: Test C postemergence; format: in vivo, Ambrosia elatior
In short: as §1

velvetleaf [4] = experiment: Test C postemergence; format: in vivo, Abutilon theophrasti
In short: as §1

kochia = experiment: Test C postemergence; format: in vivo, Kochia scoparia
In short: as §1

## CCOc1nc(-c2ccccc2)nn1Cc1ccnc(C(F)(F)F)c1 [Compound 27]
pigweed; 31 g ai/ha
  Plant response rating (scale of 0 to 100 where 0 is no effect and 100 is complete control): 85
pigweed; 62 g ai/ha
  Plant response rating (scale of 0 to 100 where 0 is no effect and 100 is complete control): 85
pigweed; 125 g ai/ha
  Plant response rating (scale of 0 to 100 where 0 is no effect and 100 is complete control): 95
pigweed; 250 g ai/ha
  Plant response rating (scale of 0 to 100 where 0 is no effect and 100 is complete control): 95
ducksalad; 250 g ai/ha
  Plant response rating, Ducksalad, Flood: 90
johnsongrass; 31 g ai/ha
  Plant response rating (scale of 0 to 100 where 0 is no effect and 100 is complete control): 5
johnsongrass; 62 g ai/ha
  Plant response rating (scale of 0 to 100 where 0 is no effect and 100 is complete control): 45
johnsongrass; 125 g ai/ha
  Plant response rating (scale of 0 to 100 where 0 is no effect and 100 is complete control): 100
foxtail, giant; 125 g ai/ha
  Plant response rating, Foxtail, Giant: 100
foxtail, giant; 500 g ai/ha, approx. 10 d
  Plant response rating, Foxtail, Giant: 100
Velvetleaf [1]; 31 g ai/ha
  Velvetleaf plant response rating (0 to 100): 10
Velvetleaf [1]; 62 g ai/ha
  Velvetleaf plant response rating (0 to 100): 70
Velvetleaf [1]
  Plant response rating (scale of 0 to 100 where 0 is no effect and 100 is complete control): 100
morningglory; 31 g ai/ha
  Plant response rating (scale of 0 to 100 where 0 is no effect and 100 is complete control): 85
morningglory; 62 g ai/ha
  Plant response rating (scale of 0 to 100 where 0 is no effect and 100 is complete control): 80
morningglory; 125 g ai/ha
  Plant response rating (scale of 0 to 100 where 0 is no effect and 100 is complete control): 90
morningglory; 250 g ai/ha
  Plant response rating (scale of 0 to 100 where 0 is no effect and 100 is complete control): 85
corn; 125 g ai/ha
  Plant response rating, Corn: 60
corn; 500 g ai/ha
  Plant response rating, Corn: 70
Barnyardgrass [2]; 125 g ai/ha
  Plant response rating, Barnyardgrass: 100
Barnyardgrass [2]; 500 g ai/ha, approx. 10 d
  Plant response rating, Barnyardgrass: 100
rice; 250 g ai/ha
  Plant response rating, Rice, Flood: 30
crabgrass, large; 31 g ai/ha
  Plant response rating (scale of 0 to 100 where 0 is no effect and 100 is complete control): 10
crabgrass, large; 62 g ai/ha
  Plant response rating (scale of 0 to 100 where 0 is no effect and 100 is complete control): 20
crabgrass, large; 125 g ai/ha
  Plant response rating (scale of 0 to 100 where 0 is no effect and 100 is complete control): 15
crabgrass, large; 250 g ai/ha
  Plant response rating (scale of 0 to 100 where 0 is no effect and 100 is complete control): 45
Barnyardgrass [3]; 125 g ai/ha
  Plant response rating, Barnyardgrass: 90
Barnyardgrass [3]; 500 g ai/ha
  Plant response rating, Barnyardgrass: 90
ragweed; 31 g ai/ha
  Plant response rating (scale of 0 to 100 where 0 is no effect and 100 is complete control): 55
ragweed; 62 g ai/ha
  Plant response rating (scale of 0 to 100 where 0 is no effect and 100 is complete control): 60
ragweed; 125 g ai/ha
  Plant response rating (scale of 0 to 100 where 0 is no effect and 100 is complete control): 25
ragweed; 250 g ai/ha
  Plant response rating (scale of 0 to 100 where 0 is no effect and 100 is complete control): 70
Velvetleaf [4]; 31 g ai/ha
  Plant response rating (scale of 0 to 100 where 0 is no effect and 100 is complete control): 45
Velvetleaf [4]; 62 g ai/ha
  Plant response rating (scale of 0 to 100 where 0 is no effect and 100 is complete control): 50
Velvetleaf [4]; 125 g ai/ha
  Plant response rating (scale of 0 to 100 where 0 is no effect and 100 is complete control): 60
Velvetleaf [4]; 250 g ai/ha
  Plant response rating (scale of 0 to 100 where 0 is no effect and 100 is complete control): 70
kochia; 31 g ai/ha
  Plant response rating (scale of 0 to 100 where 0 is no effect and 100 is complete control): 95
kochia; 62 g ai/ha
  Plant response rating (scale of 0 to 100 where 0 is no effect and 100 is complete control): 95
kochia; 125 g ai/ha
  Plant response rating (scale of 0 to 100 where 0 is no effect and 100 is complete control): 95
kochia; 250 g ai/ha
  Plant response rating (scale of 0 to 100 where 0 is no effect and 100 is complete control): 95

## CCc1nc(-c2ccc(C(F)(F)F)cc2)nn1Cc1ccnc(C(F)(F)F)c1 [Compound 1, 4-[[5-ethyl-3-[4-(trifluoromethyl)phenyl]-1H-1,2,4-triazol-1-yl]methyl]-2-(trifluoromethyl)pyridine]
pigweed; 31 g ai/ha
  Plant response rating (scale of 0 to 100 where 0 is no effect and 100 is complete control): 50
pigweed; 62 g ai/ha
  Plant response rating (scale of 0 to 100 where 0 is no effect and 100 is complete control): 98
pigweed; 125 g ai/ha
  Plant response rating (scale of 0 to 100 where 0 is no effect and 100 is complete control): 98
pigweed; 250 g ai/ha
  Plant response rating (scale of 0 to 100 where 0 is no effect and 100 is complete control): 100
ducksalad; Heteranthera limosa, 360 h, 125 g ai/ha, read-out: Plant response rating, Ducksalad, Flood
  pest or weed control at 125 g/ha: 20%
johnsongrass; 31 g ai/ha
  Plant response rating (scale of 0 to 100 where 0 is no effect and 100 is complete control): 10
johnsongrass; 62 g ai/ha
  Plant response rating (scale of 0 to 100 where 0 is no effect and 100 is complete control): 10
johnsongrass; 125 g ai/ha
  Plant response rating (scale of 0 to 100 where 0 is no effect and 100 is complete control): 15
johnsongrass; 250 g ai/ha
  Plant response rating (scale of 0 to 100 where 0 is no effect and 100 is complete control): 20
foxtail, giant; Setaria faberi, pre-emergence, 240 h, 125 g ai/ha, read-out: Plant response rating, Foxtail, Giant
  pest or weed control at 125 g/ha: 100%
foxtail, giant; Setaria faberi, pre-emergence, 240 h, 500 g ai/ha, approx. 10 d, read-out: Plant response rating, Foxtail, Giant
  pest or weed control at 500 g/ha: 100%
Velvetleaf [1]; 31 g ai/ha
  Velvetleaf plant response rating (0 to 100): 15
Velvetleaf [1]; 62 g ai/ha
  Velvetleaf plant response rating (0 to 100): 30
Velvetleaf [1]
  Plant response rating (scale of 0 to 100 where 0 is no effect and 100 is complete control): 75
morningglory; 31 g ai/ha
  Plant response rating (scale of 0 to 100 where 0 is no effect and 100 is complete control): 60
morningglory; 62 g ai/ha
  Plant response rating (scale of 0 to 100 where 0 is no effect and 100 is complete control): 70
morningglory; 125 g ai/ha
  Plant response rating (scale of 0 to 100 where 0 is no effect and 100 is complete control): 70
morningglory; 250 g ai/ha
  Plant response rating (scale of 0 to 100 where 0 is no effect and 100 is complete control): 95
corn; Zea mays, post-emergence, 240 h, 125 g ai/ha
  Corn plant response rating (crop injury, 0 = no effect, 100 = complete kill) at 125 g/ha: 30%
corn; Zea mays, post-emergence, 240 h, 500 g ai/ha
  Corn plant response rating (crop injury, 0 = no effect, 100 = complete kill) at 500 g/ha: 80%
Barnyardgrass [2]; Echinochloa crus-galli, pre-emergence, 240 h, 125 g ai/ha, read-out: Plant response rating, Barnyardgrass
  pest or weed control at 125 g/ha: 80%
Barnyardgrass [2]; Echinochloa crus-galli, pre-emergence, 240 h, 500 g ai/ha, approx. 10 d, read-out: Plant response rating, Barnyardgrass
  pest or weed control at 500 g/ha: 90%
rice; Oryza sativa, 360 h, 125 g ai/ha, read-out: Plant response rating, Rice, Flood
  plant injury at 125 g/ha: 25%
crabgrass, large; 31 g ai/ha
  Plant response rating (scale of 0 to 100 where 0 is no effect and 100 is complete control): 5
crabgrass, large; 62 g ai/ha
  Plant response rating (scale of 0 to 100 where 0 is no effect and 100 is complete control): 5
crabgrass, large; 125 g ai/ha
  Plant response rating (scale of 0 to 100 where 0 is no effect and 100 is complete control): 45
crabgrass, large; 250 g ai/ha
  Plant response rating (scale of 0 to 100 where 0 is no effect and 100 is complete control): 45
Barnyardgrass [3]; Echinochloa crus-galli, post-emergence, 240 h, 125 g ai/ha, read-out: Plant response rating, Barnyardgrass
  pest or weed control at 125 g/ha: 80%
Barnyardgrass [3]; Echinochloa crus-galli, post-emergence, 240 h, 500 g ai/ha, read-out: Plant response rating, Barnyardgrass
  pest or weed control at 500 g/ha: 90%
ragweed; 31 g ai/ha
  Plant response rating (scale of 0 to 100 where 0 is no effect and 100 is complete control): 60
ragweed; 62 g ai/ha
  Plant response rating (scale of 0 to 100 where 0 is no effect and 100 is complete control): 70
ragweed; 125 g ai/ha
  Plant response rating (scale of 0 to 100 where 0 is no effect and 100 is complete control): 75
ragweed; 250 g ai/ha
  Plant response rating (scale of 0 to 100 where 0 is no effect and 100 is complete control): 80
Velvetleaf [4]; 31 g ai/ha
  Plant response rating (scale of 0 to 100 where 0 is no effect and 100 is complete control): 40
Velvetleaf [4]; 62 g ai/ha
  Plant response rating (scale of 0 to 100 where 0 is no effect and 100 is complete control): 55
Velvetleaf [4]; 125 g ai/ha
  Plant response rating (scale of 0 to 100 where 0 is no effect and 100 is complete control): 60
Velvetleaf [4]; 250 g ai/ha
  Plant response rating (scale of 0 to 100 where 0 is no effect and 100 is complete control): 75
kochia; 31 g ai/ha
  Plant response rating (scale of 0 to 100 where 0 is no effect and 100 is complete control): 85
kochia; 62 g ai/ha
  Plant response rating (scale of 0 to 100 where 0 is no effect and 100 is complete control): 85
kochia; 125 g ai/ha
  Plant response rating (scale of 0 to 100 where 0 is no effect and 100 is complete control): 90
kochia; 250 g ai/ha
  Plant response rating (scale of 0 to 100 where 0 is no effect and 100 is complete control): 90
